Measured values reported in patent US20250326732A1 (Pretzel Therapeutics, Inc., priority 2021, published 2025).

Molecular target: POLRMT (Homo sapiens (Human), UniProt O00411)
Test: homogeneous TR-FRET assay of mitochondrial transcription (inhibition of POLRMT)
Format: biochemical
Conditions: 7.5 nM POLRMT, 15 nM TFB2M, 30 nM TFAM, 0.5 nM DNA template, 500 μM NTPs, 37° C. for 60 minutes
Procedure, shortened: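 POLRMT transcription from linearized pUC-LSP DNA template; RNA product detected by hybridization of ATTO647 acceptor (1 nM) and biotinylated donor (3 nM) probes plus Europium-streptavidin. Reaction stopped with EDTA/700 mM NaCl buffer, pH 7.5.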

POLRMT, sequence (O00411 42-1230): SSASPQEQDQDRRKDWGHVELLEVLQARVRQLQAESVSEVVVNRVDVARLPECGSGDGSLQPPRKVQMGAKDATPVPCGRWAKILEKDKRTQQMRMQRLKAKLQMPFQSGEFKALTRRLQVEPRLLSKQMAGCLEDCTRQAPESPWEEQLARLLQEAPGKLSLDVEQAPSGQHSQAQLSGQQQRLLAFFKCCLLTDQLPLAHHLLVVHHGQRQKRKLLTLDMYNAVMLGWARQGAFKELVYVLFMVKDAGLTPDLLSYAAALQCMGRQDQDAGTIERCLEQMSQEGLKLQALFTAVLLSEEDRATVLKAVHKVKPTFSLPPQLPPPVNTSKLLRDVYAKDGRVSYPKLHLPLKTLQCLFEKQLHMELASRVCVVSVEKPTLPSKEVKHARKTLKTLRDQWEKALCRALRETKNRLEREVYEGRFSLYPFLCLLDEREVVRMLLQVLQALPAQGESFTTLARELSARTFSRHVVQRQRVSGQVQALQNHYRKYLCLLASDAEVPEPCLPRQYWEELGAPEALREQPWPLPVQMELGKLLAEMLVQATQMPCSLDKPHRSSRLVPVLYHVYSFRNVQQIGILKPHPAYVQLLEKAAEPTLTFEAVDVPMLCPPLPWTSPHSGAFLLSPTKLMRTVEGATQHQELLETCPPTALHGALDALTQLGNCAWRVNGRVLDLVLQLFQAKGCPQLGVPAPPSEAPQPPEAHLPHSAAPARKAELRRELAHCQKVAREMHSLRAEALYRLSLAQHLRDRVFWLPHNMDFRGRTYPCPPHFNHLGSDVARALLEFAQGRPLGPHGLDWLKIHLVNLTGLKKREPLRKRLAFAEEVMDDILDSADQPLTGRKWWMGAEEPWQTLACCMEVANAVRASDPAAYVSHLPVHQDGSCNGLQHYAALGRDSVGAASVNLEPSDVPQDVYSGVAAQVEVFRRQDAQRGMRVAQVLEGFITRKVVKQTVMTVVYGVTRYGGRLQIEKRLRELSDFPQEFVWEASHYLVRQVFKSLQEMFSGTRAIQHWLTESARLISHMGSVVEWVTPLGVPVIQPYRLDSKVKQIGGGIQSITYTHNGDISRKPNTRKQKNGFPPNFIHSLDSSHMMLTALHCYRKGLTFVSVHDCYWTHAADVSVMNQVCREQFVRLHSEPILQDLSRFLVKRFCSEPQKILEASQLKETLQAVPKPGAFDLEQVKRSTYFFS

| IC50 [µM] | SMILES |
| --- | --- |
| 4 | Cc1ccccc1-c1cc(=O)oc2cc(NCc3ccccn3)ccc12 [Example 164, 7-((pyridin-2-ylmethyl)amino)-4-(o-tolyl)-2H-chromen-2-one] |
| 4 | Cc1ccccc1-c1cc(=O)oc2cc(NCCC(=O)O)ccc12 [Example 145, 3-((2-oxo-4-(o-tolyl)-2H-chromen-7-yl)amino)propanoic acid] |
| 0.1 | Cc1ccccc1-c1cc(=O)oc2cc(N(C)CCC(=O)O)ccc12 [Example 144, 3-(methyl(2-oxo-4-(o-tolyl)-2H-chromen-7-yl)amino)propanoic acid] |
| 0.8 | Cc1ccccc1-c1cc(=O)oc2cc(CN(C)C(=O)C3CCC(C(=O)O)CC3)ccc12 [Example 158, (1S,4S)-4-(methyl((2-oxo-4-(o-tolyl)-2H-chromen-7-yl)methyl)carbamoyl)cyclohexane-1-carboxylic acid] |
| 3 | COC(=O)CC(C)c1ccc2c(-c3ccccc3C)cc(=O)oc2c1 (stereo not drawn) [Example 58, methyl 3-(2-oxo-4-(o-tolyl)-2H-chromen-7-yl)butanoate] |
| 0.2 | Cc1ccccc1-c1cc(=O)oc2cc(N(C)CC(=O)NCCO)ccc12 [Example 219, N-(2-hydroxyethyl)-2-(methyl(2-oxo-4-(o-tolyl)-2H-chromen-7-yl)amino)acetamide] |
| 6 | CNC(=O)C(C)Cc1ccc2c(-c3ccccc3C)cc(=O)oc2c1 (single isomer, unassigned) [Example 67, N,2-dimethyl-3-(2-oxo-4-(o-tolyl)-2H-chromen-7-yl)propanamide] |
| 0.4 | COCc1ccc2c(-c3ccccc3C)cc(=O)oc2c1 [Example 10, 7-(methoxymethyl)-4-(o-tolyl)-2H-chromen-2-one] |
| 2 | Cc1ccccc1-c1cc(=O)oc2cc(C(C)CC(=O)N3CCCCC3)ccc12 (stereo not drawn) [Example 59, 7-(4-oxo-4-(piperidin-1-yl)butan-2-yl)-4-(o-tolyl)-2H-chromen-2-one] |
| 1 | CN(Cc1ccc2c(-c3ccc(F)cc3Cl)cc(=O)oc2c1)C(=O)N1CCC[C@H](C(=O)O)C1 [Example 08, (S)-1-(((4-(2-chloro-4-fluorophenyl)-2-oxo-2H-chromen-7-yl)methyl)(methyl)carbamoyl)piperidine-3-carboxylic acid] |
| 0.9 | CN(CCC(N)=O)c1ccc2c(-c3ccc(F)cc3Cl)cc(=O)oc2c1 [Example 137, 3-((4-(2-chloro-4-fluorophenyl)-2-oxo-2H-chromen-7-yl)(methyl)amino)propanamide] |
| 20 | Cc1ccccc1-c1cc(=O)oc2cc(C(C)N)ccc12 (stereo not drawn) [Example 91, 7-(1-aminoethyl)-4-(o-tolyl)-2H-chromen-2-one] |
| 2 | CNC(=O)c1ccc2c(-c3ccccc3C)cc(=O)oc2c1 [Example 02, N-methyl-2-oxo-4-(o-tolyl)-2H-chromene-7-carboxamide] |
| 1 | CN(CCC(=O)O)c1ccc2c(-c3ccccc3Cl)cc(=O)oc2c1 [Example 132, 3-((4-(2-chlorophenyl)-2-oxo-2H-chromen-7-yl)(methyl)amino)propanoic acid] |
| 28 | C[C@@H](Cc1ccc2c(-c3ccc(F)cc3Cl)cc(=O)oc2c1)C(=O)N1CCC[C@H](C(=O)O)C1 [Example 186, (S)-1-((S)-3-(4-(2-chloro-4-fluorophenyl)-2-oxo-2H-chromen-7-yl)-2-methylpropanoyl)piperidine-3-carboxylic acid] |
| 8 | Cc1ccccc1-c1cc(=O)oc2cc(N[C@@H](CC(C)C)C(=O)OC(C)(C)C)ccc12 [Example 60, tert-butyl (2-oxo-4-(o-tolyl)-2H-chromen-7-yl)-L-leucinate] |
| 2 | Cc1ccccc1-c1cc(=O)oc2cc(CNC(=O)N3CCC[C@H](C(=O)O)C3)ccc12 [Example 150, (S)-1-(((2-oxo-4-(o-tolyl)-2H-chromen-7-yl)methyl)carbamoyl)piperidine-3-carboxylic acid] |
| 10 | CN(CC(=O)O)c1ccc2c(-c3ccccc3)cc(=O)oc2c1 [Example 101, N-methyl-N-(2-oxo-4-phenyl-2H-chromen-7-yl)glycine] |
